According to patent US20110112135A1, “Imidazo [1,2-A] Pyridine Compounds” (priority 2007, published 2011):
Read-outs that look alike come from different tables or passages of the source.

Tests used:
[1] = system: ABCA1 gene; assay: Quantitative analysis of ABCA1 gene regulation in THP-1 cells (real-time PCR); format: cell-based, human; conditions: for Emax: LXR agonist reference at 1.0 uM as positive control, read-out: Agonism ABCA1; for EC50: read-out: EC50 ABCA1
Method: III. Quantitative Analysis of ABCA1 Gene Regulation in THP-1 Cells. The compounds of formula (I) effect on the regulation of the ABCA1 gene was evaluated using the following procedure. Materials and Methods Cell culture: The THP-1 monocytic cell line (ATCC #TIB-202) was obtained from American Type Culture Collection (Manassas, Va.) and cultured in RPMI 1640 medium (Gibco, Carlsbad, Calif.) containing 10% FBS, 2 mM L-glutamine, and 55 uM beta-Mercaptoethanol (BME). […] Louis, Mo.) for three days to induce differentiation into adherent macrophages. Differentiated THP-1 cells were treated with test compounds or ligands dissolved in DMSO (Sigma, D-8779) in culture medium lacking phorbal ester. […] Dose response effects were measured in duplicate, in the range of 0.001 to 30 micromolar concentrations and treated cells were incubated for an additional 18 hrs prior to RNA isolation. Unstimulated cells treated with vehicle were included as negative controls on each plate. […] L., J. Med. Chem. (2000), 45:1963-1966.). Results of antagonist analysis are expressed as % antagonism and IC50 (in μM). RNA isolation and quantitation: Total cellular RNA was isolated from treated cells cultured in 96-well plates using PrepStation 6100 (Applied Biosystems, Foster City, Calif.), according to the manufacturer's recommendations. RNA was resuspended in ribonuclease-free water and stored at -70° C. prior to analysis. RNA concentrations were quantitated with RiboGreen test procedure, #R-11490 (Molecular Probes, Eugene, Oreg.). Gene expression analysis: Gene-specific mRNA quantitation was performed by real-time PCR with the Perkin Elmer Corp. chemistry on an ABI Prism 7700 Sequence detection system (Applied Biosystems, Foster City, Calif.) according to the manufacturer's instructions. Samples (50-100 ng) of total RNA were assayed in duplicate or triplicate in 50 ul reactions using one-step RT-PCR and the standard curve method to estimate specific mRNA concentrations. Sequences of gene-specific primer and probe sets were designed with Primer Express Software (Applied Biosystems, Foster City, Calif.). […] Relative levels of ABCA1 mRNA are normalized using GAPDH mRNA or 18S rRNA probe/primer sets purchased commercially (Applied Biosystems, Foster City, Calif.). Statistics: Mean, standard deviation and statistical significance of duplicate evaluations of RNA samples were assessed using ANOVA, one-way analysis of variance using SAS analysis. Reagents: -GAPDH Probe and Primers-Taqman GAPDH Control Reagents 402869 or 4310884E 18S Ribosomal RNA-Taqman 18S Control Reagents 4308329 […] Qiagen Quantitect probe RT-PCR 204443.

[2] = target: T1, human LXRβ (Homo sapiens, UniProt P55055); assay: Ligand-binding test procedure for human LXRβ (3H T0901317 tracer, flash plates); conditions: biotinylated hLXRβ from E. coli extract; tracer 3H T0901317
T1 construct: biotin (biotinylated); made in house; host or cells: E. coli (crude extract)
T1 sequence (P55055 1-460): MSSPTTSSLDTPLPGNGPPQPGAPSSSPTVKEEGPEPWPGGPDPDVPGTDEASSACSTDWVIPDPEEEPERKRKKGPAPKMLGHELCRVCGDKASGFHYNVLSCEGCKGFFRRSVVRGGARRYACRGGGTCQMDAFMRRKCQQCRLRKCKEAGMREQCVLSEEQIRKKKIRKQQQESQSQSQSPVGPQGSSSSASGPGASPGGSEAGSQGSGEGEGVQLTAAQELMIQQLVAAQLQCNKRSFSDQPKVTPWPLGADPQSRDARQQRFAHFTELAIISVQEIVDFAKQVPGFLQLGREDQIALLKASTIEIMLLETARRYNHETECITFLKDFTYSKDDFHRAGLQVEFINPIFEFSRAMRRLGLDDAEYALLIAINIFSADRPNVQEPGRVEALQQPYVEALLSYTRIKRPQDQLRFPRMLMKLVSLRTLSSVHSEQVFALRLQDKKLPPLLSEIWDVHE
How it was run: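 Biotinylated hLXRβ from E. coli extract was captured on streptavidin flash plates (Bmax ~4000 cpm) at 4 °C overnight. Test ligand dilutions were mixed with 5 nM [3H]T0901317 tracer solution and incubated on the plates overnight at 4 °C; bound radioactivity was counted after washing.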

[3] = target: T2, human LXRα (Homo sapiens, UniProt Q13133); assay: Ligand-binding test procedure for human LXRα (3H T0901317 tracer, flash plates); conditions: biotinylated hLXRα from E. coli extract; tracer 3H T0901317
T2 construct: biotin (biotinylated); made in house; host or cells: E. coli (crude extract)
T2 sequence (Q13133 1-447): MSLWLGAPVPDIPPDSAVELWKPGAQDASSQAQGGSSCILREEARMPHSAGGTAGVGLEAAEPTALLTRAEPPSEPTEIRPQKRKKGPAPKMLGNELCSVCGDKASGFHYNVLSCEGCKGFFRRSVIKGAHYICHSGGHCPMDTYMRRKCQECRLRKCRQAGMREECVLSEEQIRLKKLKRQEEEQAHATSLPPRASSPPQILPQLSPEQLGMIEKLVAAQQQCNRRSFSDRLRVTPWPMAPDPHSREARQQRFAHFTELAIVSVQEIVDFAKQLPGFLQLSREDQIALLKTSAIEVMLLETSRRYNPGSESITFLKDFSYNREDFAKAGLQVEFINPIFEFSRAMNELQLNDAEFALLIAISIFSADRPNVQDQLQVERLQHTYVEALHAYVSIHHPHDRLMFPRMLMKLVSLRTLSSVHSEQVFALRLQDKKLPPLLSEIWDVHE
Method: II. Ligand-Binding Test Procedure for Human LXRα.
Receptor source: E. coli extract from cells expressing biotinylated hLXRα. Extract was made in a similar buffer as above, but with 50 mM TRIS.
Washed streptavidin and coated flash plates with wash buffer. Diluted receptor extract to give Bmax ˜4000 cpm and add to the wells. Wrapped the plates in aluminum foil and stored them at +4° C. over night.
Made a dilution series in DMSO of the test ligands. Made a 5 nM solution of the radioactive tracer in buffer. Mixed 250 μl diluted tracer with 5 μl of the test ligand from each concentration of the dilution series. Washed the receptor-coated flash plates. Added 200 μl per well of the ligand/radiolabel mixture to the receptor-coated flash plates. Wrapped the plates in aluminum foil and incubate at +4° C. over night.
Aspirated wells, and wash the flashed plates. Sealed the plate. Measured the remaining radioactivity in the plate.

[4] = Gene regulation by LXR (Human), differentiated THP-1 cells, 18 hrs

Question: How did the Emax [1, 4] turn out when `CC(C)(C)c1nc2c(C(F)(F)F)cccn2c1-c1cccc(Oc2cccc(S(C)(=O)=O)c2)c1` [Example 75, 2-tert-butyl-3-{3-[3-(methylsulfonyl)phenoxy]phenyl}-8-(trifluoromethyl)imidazo[1,2-a]pyridine] was run?
Answer: The Emax was 91%.

Question: And the EC50 ([1]; Homo sapiens, THP-1, 18 h)?
Answer: The EC50 was 395 nM.

Question: How did the Emax [1, 4] turn out when `CC(C)c1nc2c(C#N)cccn2c1-c1cccc(Oc2cccc(S(C)(=O)=O)c2)c1` [Example 72, 2-isopropyl-3-{3-[3-(methylsulfonyl)phenoxy]phenyl}imidazo[1,2-a]pyridine-8-carbonitrile] was run?
Answer: Its Emax is 79%.

Question: And the EC50 ([1]; Homo sapiens, THP-1, 18 h)?
Answer: The EC50 was 510 nM.

Question: With `CNS(=O)(=O)c1cccc(Oc2cccc(-c3c(C(C)C)nc4c(Cl)cccn34)c2)c1` [Example 49, 3-[3-(8-chloro-2-isopropylimidazo[1,2-a]pyridin-3-yl)phenoxy]-N-methylbenzenesulfonamide] as the compound, how does the Emax [1, 4] read?
Answer: Its Emax is 101%.

Question: And the EC50 ([1]; Homo sapiens, THP-1, 18 h)?
Answer: Its EC50 is 794 nM.

Question: How did the Emax [1, 4] turn out when `CCc1nc2c(C(F)(F)F)cccn2c1-c1cccc(Oc2cccc(S(C)(=O)=O)c2)c1` [Example 17, 2-ethyl-3-(3-(3-(methylsulfonyl)phenoxy)phenyl)-8-(trifluoromethyl)imidazo[1,2-a]pyridine] was run?
Answer: Its Emax is 91%.

Question: And the EC50 ([1]; Homo sapiens, THP-1, 18 h)?
Answer: The EC50 was 99 nM.

Question: For `CC(C)c1nc2c(Cl)cccn2c1-c1cccc(Oc2cccc(S(C)(=O)=O)c2)c1` [Example 66, 8-chloro-2-isopropyl-3-{3-[3-(methylsulfonyl)phenoxy]phenyl}imidazo[1,2-a]pyridine], which Emax [1, 4] is on record?
Answer: Its Emax is 74%.

Question: What about the EC50 ([1]; Homo sapiens, THP-1, 18 h) of the same compound?
Answer: The EC50 was 625 nM.

Question: For `CC(C)c1nc2c(C(F)(F)F)cccn2c1-c1cccc(OCc2cccc(S(C)(=O)=O)c2)c1` [Example 52, 2-isopropyl-3-(3-{[3-(methylsulfonyl)benzyl]oxy}phenyl)-8-(trifluoromethyl)imidazo[1,2-a]pyridine], which Emax [1, 4] is on record?
Answer: Its Emax is 86%.

Question: And the EC50 ([1]; Homo sapiens, THP-1, 18 h)?
Answer: The EC50 was 2380 nM.

Question: For `CCc1nc2c(C(F)(F)F)cccn2c1-c1cccc(Cc2cccc(S(C)(=O)=O)c2)c1` [Example 100, 2-ethyl-3-{3-[3-(methylsulfonyl)benzyl]phenyl}-8-(trifluoromethyl)imidazo[1,2-a]pyridine], which Emax [1, 4] is on record?
Answer: Its Emax is 82%.

Question: What about the EC50 ([1]; Homo sapiens, THP-1, 18 h) of the same compound?
Answer: Its EC50 is 460 nM.

Question: What does the source list for `CC(C)c1nc2c(Cl)cccn2c1-c1cccc(Oc2cccc(S(N)(=O)=O)c2)c1` [Example 98, 3-[3-(8-chloro-2-isopropylimidazo[1,2-a]pyridin-3-yl)phenoxy]benzenesulfonamide]?
Answer: Emax [1, 4]: 66%; EC50 ([1]; Homo sapiens, THP-1, 18 h): 1370 nM

Question: `CS(=O)(=O)c1cccc(Oc2cccc(-c3c(CN4CCCCC4)nc4c(C(F)(F)F)cccn34)c2)c1` [Example 131, 3-{3-[3-(methylsulfonyl)phenoxy]phenyl}-2-(piperidin-1-ylmethyl)-8-(trifluoromethyl)imidazo[1,2-a]pyridine] was tested. Which Emax [1, 4] did it give?
Answer: The Emax was 100%.

Question: And the EC50 ([1]; Homo sapiens, THP-1, 18 h)?
Answer: The EC50 was 43 nM.

Question: What does the source list for `CS(=O)(=O)c1cccc(Oc2cccc(-c3c(CN4CCSC4)nc4c(C(F)(F)F)cccn34)c2)c1` [Example 133, 3-{3-[3-(methylsulfonyl)phenoxy]phenyl}-2-(1,3-thiazolidin-3-ylmethyl)-8-(trifluoromethyl)imidazo[1,2-a]pyridine]?
Answer: Emax [1, 4]: 98%; EC50 ([1]; Homo sapiens, THP-1, 18 h): 10 nM

Question: Which results are given for `CCS(=O)(=O)c1cccc(Oc2cccc(-c3c(C)nc4c(C(F)(F)F)cccn34)c2)c1` [Example 10, 2-methyl-3-(3-(3-(ethylsulfonyl)phenoxy)phenyl)-8-(trifluoromethyl)imidazo[1,2-a]pyridine]?
Answer: Emax [1, 4]: 91%; EC50 ([1]; Homo sapiens, THP-1, 18 h): 552 nM

Question: What does the source list for `CS(=O)(=O)c1cccc(Oc2ccc(-c3c(-c4ccsc4)nc4c(C(F)(F)F)cccn34)cc2)c1` [Example 127, 3-{4-[3-(methylsulfonyl)phenoxy]phenyl}-2-thiophen-3-yl-8-(trifluoromethyl)imidazo[1,2-a]pyridine]?
Answer: IC50 [2]: 113 nM; EC50 ([1]; Gene regulation by LXR (Human), differentiated THP-1 cells, 18 hrs, ABCA1 mRNA): 480 nM; Emax [1, 4]: 25%

Question: With `CCc1nc2c(C(F)(F)F)cccn2c1-c1ccc(Oc2cccc(S(=O)(=O)CC)c2)cc1` [Example 105, 2-ethyl-3-{4-[3-(ethylsulfonyl)phenoxy]phenyl}-8-(trifluoromethyl)imidazo[1,2-a]pyridine] as the compound, how does the IC50 [2] read?
Answer: Its IC50 is 230 nM.

Question: And the IC50 [3]?
Answer: Its IC50 is greater than 1000 nM.
